# In US10821115B2, “Compounds that inhibit Mcl-1 protein” (priority 2017, dated 2020):
# How the values were obtained:
# [1] = target: recombinant human Mcl-1 (residues 171-327) / Bim interaction (Homo sapiens (Human), UniProt Q07820); assay: biochemical; assay type: binding; details: 0.1 nM Mcl-1(171-327), 0.05 nM biotin-Bim (51-76); read-out: Mcl-1 HTRF IC50
# [2] = system: human multiple myeloma cell line, OPM-2; assay: Cell viability assay (OPM-2 10 FBS), CellTiter-Glo; assay type: cell-based; details: Homo sapiens, OPM-2, 16 h, read-out: OPM-2 10% FBS IC50 IP, OPM-2 cells, 10% FBS, 16 h incubation
# Procedure, shortened: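 Steps: plate cells at 3000/well in 10% FBS growth medium, add serially diluted compound, incubate 16 h at 37 °C with 5% CO2, add detection reagent and read luminescence after 25 min. A 4-parameter logistic model gives IC50.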
# Sequence of recombinant human Mcl-1 (residues 171-327) / Bim interaction (Q07820 171-327): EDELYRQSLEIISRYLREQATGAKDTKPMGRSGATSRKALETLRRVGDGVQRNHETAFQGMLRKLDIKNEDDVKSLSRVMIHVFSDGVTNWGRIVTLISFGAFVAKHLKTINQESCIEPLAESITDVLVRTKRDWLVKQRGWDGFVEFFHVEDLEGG
SMILES,IC50 [1] [nM],IC50 [2] [nM]
"CCO[C@]1(CN2CCN3CCOC[C@@H]3C2)/C=C/C[C@H](C)[C@@H](CC2CCC2)S(=O)(=O)NC(=O)c2ccc3c(c2)N(C[C@@H]2CC[C@H]21)C[C@@]1(CCCc2cc(Cl)ccc21)CO3 [Example 45, (1S,3′R,6′R,7′R,8′E,11′S,12′R)-6-chloro-12′-(cyclobutylmethyl)-7′-ethoxy-7′-((9aS)-hexahydropyrazino[2,1-c][1,4]oxazin-8(1H)-ylmethyl)-11′-methyl-3,4-dihydro-2H,15′H-spiro[naphthalene-1,22′-[20]oxa[13]thia[1,14]diazatetracyclo [14.7.2.0~3,6~.0~19,24~]pentacosa[8,16,18,24]tetraen]-15′-one 13′,13′-dioxide]",0.245,891
"C=CCO[C@]1(CN2CCN3CCOC[C@@H]3C2)/C=C/C[C@H](C)[C@@H](C)S(=O)(=O)NC(=O)c2ccc3c(c2)N(C[C@@H]2CC[C@H]21)C[C@@]1(CCCc2cc(Cl)ccc21)CO3 [Example 46, (1S,3′R,6′R,7′R,8′E,11′S,12′R)-6-chloro-7′-((9aS)-hexahydropyrazino[2,1-c][1,4]oxazin-8(1H)-ylmethyl)-11′,12′-dimethyl-7′-(2-propen-1-yloxy)-3,4-dihydro-2H,15′H-spiro[naphthalene-1,22′-[20]oxa[13]thia[1,14]diazatetracyclo [14.7.2.0~3,6~.0~19,24~]pentacosa[8,16,18,24]tetraen]-15′-one 13′,13′-dioxide]",0.107,167
"CC(C)O[C@]1(CN2CCN3CCOC[C@@H]3C2)/C=C/C[C@H](C)[C@@H](C)S(=O)(=O)NC(=O)c2ccc3c(c2)N(C[C@@H]2CC[C@H]21)C[C@@]1(CCCc2cc(Cl)ccc21)CO3 [Example 47, (1S,3′R,6′R,7′R,8′E,11′S,12′R)-6-chloro-7′-((9aS)-hexahydropyrazino[2,1-c][1,4]oxazin-8(1H)-ylmethyl)-11′,12′-dimethyl-7′-(1-methylethoxy)-3,4-dihydro-2H,15′H-spiro[naphthalene-1,22′-[20]oxa[13]thia[1,14]diazatetracyclo [14.7.2.0~3,6~.0~19,24~]pentacosa[8,16,18,24]tetraen]-15′-one 13′,13′-dioxide]",0.131,285
"CCCCO[C@]1(CN2CCN3CCOC[C@@H]3C2)/C=C/C[C@H](C)[C@@H](C)S(=O)(=O)NC(=O)c2ccc3c(c2)N(C[C@@H]2CC[C@H]21)C[C@@]1(CCCc2cc(Cl)ccc21)CO3 [Example 48, (1S,3′R,6′R,7′R,8′E,11′S,12′R)-7′-butoxy-6-chloro-7′-((9aS)-hexahydropyrazino[2,1-c][1,4]oxazin-8(1H)-ylmethyl)-11′,12′-dimethyl-3,4-dihydro-2H,15′H-spiro[naphthalene-1,22′-[20]oxa[13]thia[1,14]diazatetracyclo [14.7.2.0~3,6~.0~19,24~]pentacosa[8,16,18,24]tetraen]-15′-one 13′,13′-dioxide]",0.14,407
"C[C@@H]1[C@@H](C)C/C=C/[C@](CN2CCN3CCOC[C@@H]3C2)(OCC(F)(F)F)[C@@H]2CC[C@H]2CN2C[C@@]3(CCCc4cc(Cl)ccc43)COc3ccc(cc32)C(=O)NS1(=O)=O [Example 49, (1S,3′R,6′R,7′S,8′E,11′S,12′R)-6-chloro-7′-((9aS)-hexahydropyrazino[2,1-c][1,4]oxazin-8(1H)-ylmethyl)-11′,12′-dimethyl-7′-(2,2,2-trifluoroethoxy)-3,4-dihydro-2H,15′H-spiro[naphthalene-1,22′-[20]oxa[13]thia[1,14]diazatetracyclo [14.7.2.0~3,6~.0~19,24~]pentacosa[8,16,18,24]tetraen]-15′-one 13′,13′-dioxide]",0.087,185
"C[C@@H]1[C@@H](C)C/C=C/[C@@](CN2CCN3CCOC[C@@H]3C2)(OCC(F)(F)F)[C@@H]2CC[C@H]2CN2C[C@@]3(CCCc4cc(Cl)ccc43)COc3ccc(cc32)C(=O)NS1(=O)=O [Example 50, (1S,3′R,6′R,7′R,8′E,11′S,12′R)-6-chloro-7′-((9aS)-hexahydropyrazino[2,1-c][1,4]oxazin-8(1H)-ylmethyl)-11′,12′-dimethyl-7′-(2,2,2-trifluoroethoxy)-3,4-dihydro-2H,15′H-spiro[naphthalene-1,22′-[20]oxa[13]thia[1,14]diazatetracyclo [14.7.2.0~3,6~.0~19,24~]pentacosa[8,16,18,24]tetraen]-15′-one 13′,13′-dioxide]",0.736,1530
CC(C)O[C@]1(CN2CCN(C(C)C)[C@H](C)C2)/C=C/C[C@H](C)[C@@H](C)S(=O)(=O)NC(=O)c2ccc3c(c2)N(C[C@@H]2CC[C@H]21)C[C@@]1(CCCc2cc(Cl)ccc21)CO3 [Example 51],0.072,99
"CO[C@@]1(CN2CCOCC2)/C=C/C[C@H](C)[C@@H](C)S(=O)(=O)NC(=O)c2ccc3c(c2)N(C[C@@H]2CC[C@H]21)C[C@@]1(CCCc2cc(Cl)ccc21)CO3 [Example 52, (1S,3′R,6′R,7′S,8′E,11′S,12′R)-6-chloro-7′-methoxy-11′,12′-dimethyl-7′-(4-morpholinylmethyl)-3,4-dihydro-2H,15′H-spiro[naphthalene-1,22′-[20]oxa[13]thia[1,14]diazatetracyclo [14.7.2.0~3,6~.0~19,24~]pentacosa[8,16,18,24]tetraen]-15′-one 13′,13′-dioxide]",0.522,330
"CO[C@]1(CN2CCOCC2)/C=C/C[C@H](C)[C@@H](C)S(=O)(=O)NC(=O)c2ccc3c(c2)N(C[C@@H]2CC[C@H]21)C[C@@]1(CCCc2cc(Cl)ccc21)CO3 [Example 53, (1S,3′R,6′R,7′R,8′E,11′S,12′R)-6-chloro-7′-methoxy-11′,12′-dimethyl-7′-(4-morpholinylmethyl)-3,4-dihydro-2H,15′H-spiro[naphthalene-1,22′-[20]oxa[13]thia[1,14]diazatetracyclo [14.7.2.0~3,6~.0~19,24~]pentacosa[8,16,18,24]tetraen]-15′-one 13′,13′-dioxide]",0.336,290
"COCCN1CCN(C[C@@]2(OC)/C=C/C[C@H](C)[C@@H](C)S(=O)(=O)NC(=O)c3ccc4c(c3)N(C[C@@H]3CC[C@H]32)C[C@@]2(CCCc3cc(Cl)ccc32)CO4)CC1=O [Example 54, (1S,3′R,6′R,7′R,8′E,11′S,12′R)-6-chloro-7′-methoxy-7′-((4-(2-methoxyethyl)-3-oxo-1-piperazinyl)methyl)-11′,12′-dimethyl-3,4-dihydro-2H,15′H-spiro[naphthalene-1,22′-[20]oxa[13]thia[1,14]diazatetracyclo [14.7.2.0~3,6~.0~19,24~]pentacosa[8,16,18,24]tetraen]-15′-one 13′,13′-dioxide]",0.173,129
"COCCN1CCN(C[C@]2(OC)/C=C/C[C@H](C)[C@@H](C)S(=O)(=O)NC(=O)c3ccc4c(c3)N(C[C@@H]3CC[C@H]32)C[C@@]2(CCCc3cc(Cl)ccc32)CO4)CC1=O [Example 55, (1S,3′R,6′R,7′S,8′E,11′S,12′R)-6-chloro-7′-methoxy-7′-((4-(2-methoxyethyl)-3-oxo-1-piperazinyl)methyl)-11′,12′-dimethyl-3,4-dihydro-2H,15′H-spiro[naphthalene-1,22′-[20]oxa[13]thia[1,14]diazatetracyclo [14.7.2.0~3,6~.0~19,24~]pentacosa[8,16,18,24]tetraen]-15′-one 13′,13′-dioxide]",0.162,80
"CO[C@@]1(CN2CCN3CCOC[C@@H]3C2)/C=C/C[C@H](C)[C@@H](C)S(=O)(=O)NC(=O)c2ccc3c(c2)N(C[C@@H]2CC[C@H]21)C[C@@]1(CCCc2cc(Cl)ccc21)CO3 [Example 56, (1S,3′R,6′R,7′S,8′E,11′S,12′R)-6-chloro-7′-((9aS)-hexahydropyrazino[2,1-c][1,4]oxazin-8(1H)-ylmethyl)-7′-methoxy-11′,12′-dimethyl-3,4-dihydro-2H,15′H-spiro[naphthalene-1,22′-[20]oxa[13]thia[1,14]diazatetracyclo [14.7.2.0~3,6~.0~19,24~]pentacosa[8,16,18,24]tetraen]-15′-one 13′,13′-dioxide]",0.083,79
"CO[C@@]1(CN2CCN3CCOC[C@H]3C2)/C=C/C[C@H](C)[C@@H](C)S(=O)(=O)NC(=O)c2ccc3c(c2)N(C[C@@H]2CC[C@H]21)C[C@@]1(CCCc2cc(Cl)ccc21)CO3 [Example 57, (1S,3′R,6′R,7′S,8′E,11′S,12′R)-6-chloro-7′-((9aR)-hexahydropyrazino[2,1-c][1,4]oxazin-8(1H)-ylmethyl)-7′-methoxy-11′,12′-dimethyl-3,4-dihydro-2H,15′H-spiro[naphthalene-1,22′-[20]oxa[13]thia[1,14]diazatetracyclo [14.7.2.0~3,6~.0~19,24~]pentacosa[8,16,18,24]tetraen]-15′-one 13′,13′-dioxide]",0.258,90
"CO[C@]1(CN2CCN3CCOC[C@H]3C2)/C=C/C[C@H](C)[C@@H](C)S(=O)(=O)NC(=O)c2ccc3c(c2)N(C[C@@H]2CC[C@H]21)C[C@@]1(CCCc2cc(Cl)ccc21)CO3 [Example 58, (1S,3′R,6′R,7′R,8′E,11′S,12′R)-6-chloro-7′-((9aR)-hexahydropyrazino[2,1-c][1,4]oxazin-8(1H)-ylmethyl)-7′-methoxy-11′,12′-dimethyl-3,4-dihydro-2H,15′H-spiro[naphthalene-1,22′-[20]oxa[13]thia[1,14]diazatetracyclo [14.7.2.0~3,6~.0~19,24~]pentacosa[8,16,18,24]tetraen]-15′-one 13′,13′-dioxide]",0.719,95
